Results reported in ChEMBL document CHEMBL1909294, “Translating clinical findings into knowledge in drug safety evaluation--drug induced liver injury prediction system (DILIps)” (PLoS Comput Biol, 2011).

How the values were obtained:
Hepatotoxicity [1] = tested on: Hepatotoxicity;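 on HepSE bilirubinemia: bilirubinemia hepatic side effect score drawn from the DILIps training data, a prediction system for drug-induced liver injury; call rule not given here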;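 on HepSE cholecystitis: Cholecystitis-related hepatic side effect score drawn from the DILIps (drug-induced liver injury prediction) training data set; call rule not given here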;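 on HepSE cholelithiasis: hepatic side effect score for cholelithiasis, drawn from the DILIps training data for predicting drug-induced liver injury; call rule not given here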;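 on HepSE cirrhosis: cirrhosis hepatic side effect score taken from the DILIps (drug-induced liver injury prediction) training set; call rule not given here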;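 on HepSE elevated liver function tests: hepatic side effect score for raised liver function tests, as recorded in the DILIps training set used for predicting drug-induced liver injury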; on HepSE hepatic failure: call rule not given here;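 on HepSE hepatomegaly: hepatic side effect score for hepatomegaly, taken from the training set of the DILIps drug-induced liver injury prediction system; call rule not given here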
Hepatotoxicity [2] = tested on: Hepatotoxicity; remark: listed apart in the source;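 on HepSE bilirubinemia: bilirubinemia hepatic side effect score drawn from the DILIps training data, a prediction system for drug-induced liver injury; call rule not given here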;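 on HepSE cholecystitis: Cholecystitis-related hepatic side effect score drawn from the DILIps (drug-induced liver injury prediction) training data set; call rule not given here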;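 on HepSE cholelithiasis: hepatic side effect score for cholelithiasis, drawn from the DILIps training data for predicting drug-induced liver injury; call rule not given here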;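 on HepSE cirrhosis: cirrhosis hepatic side effect score taken from the DILIps (drug-induced liver injury prediction) training set; call rule not given here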;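 on HepSE elevated liver function tests: hepatic side effect score for raised liver function tests, as recorded in the DILIps training set used for predicting drug-induced liver injury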; on HepSE hepatic failure: call rule not given here;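 on HepSE hepatomegaly: hepatic side effect score for hepatomegaly, taken from the training set of the DILIps drug-induced liver injury prediction system; call rule not given here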
Hepatotoxicity [3] = tested on: Hepatotoxicity; remark: listed apart in the source;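 on HepSE bilirubinemia: bilirubinemia hepatic side effect score drawn from the DILIps training data, a prediction system for drug-induced liver injury; call rule not given here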;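 on HepSE cholecystitis: Cholecystitis-related hepatic side effect score drawn from the DILIps (drug-induced liver injury prediction) training data set; call rule not given here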;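 on HepSE cholelithiasis: hepatic side effect score for cholelithiasis, drawn from the DILIps training data for predicting drug-induced liver injury; call rule not given here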;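 on HepSE cirrhosis: cirrhosis hepatic side effect score taken from the DILIps (drug-induced liver injury prediction) training set; call rule not given here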;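 on HepSE elevated liver function tests: hepatic side effect score for raised liver function tests, as recorded in the DILIps training set used for predicting drug-induced liver injury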; on HepSE hepatic failure: call rule not given here
Hepatotoxicity [4] = tested on: Hepatotoxicity; remark: listed apart in the source;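 on HepSE bilirubinemia: bilirubinemia hepatic side effect score drawn from the DILIps training data, a prediction system for drug-induced liver injury; call rule not given here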;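 on HepSE cholecystitis: Cholecystitis-related hepatic side effect score drawn from the DILIps (drug-induced liver injury prediction) training data set; call rule not given here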;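 on HepSE cholelithiasis: hepatic side effect score for cholelithiasis, drawn from the DILIps training data for predicting drug-induced liver injury; call rule not given here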;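 on HepSE cirrhosis: cirrhosis hepatic side effect score taken from the DILIps (drug-induced liver injury prediction) training set; call rule not given here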;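 on HepSE elevated liver function tests: hepatic side effect score for raised liver function tests, as recorded in the DILIps training set used for predicting drug-induced liver injury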; on HepSE hepatic failure: call rule not given here
Hepatotoxicity [5] = tested on: Hepatotoxicity; remark: listed apart in the source; on HepSE hepatic failure: call rule not given here
Hepatotoxicity [6] = tested on: Hepatotoxicity; remark: listed apart in the source; on HepSE hepatic failure: call rule not given here
Hepatotoxicity [7] = tested on: Hepatotoxicity; remark: listed apart in the source
Hepatotoxicity [8] = tested on: Hepatotoxicity; remark: listed apart in the source
Hepatotoxicity [9] = tested on: Hepatotoxicity; remark: listed apart in the source
Hepatotoxicity [10] = tested on: Hepatotoxicity; remark: listed apart in the source
Hepatotoxicity [11] = tested on: Hepatotoxicity; remark: listed apart in the source
Hepatotoxicity [12] = tested on: Hepatotoxicity; remark: listed apart in the source
Hepatotoxicity [13] = tested on: Hepatotoxicity; remark: listed apart in the source
Hepatotoxicity [14] = tested on: Hepatotoxicity; remark: listed apart in the source

Row | Compound | HepSE_bilirubinemia (Hepatotoxicity [1]) | HepSE_cholecystitis (Hepatotoxicity [2]) | HepSE_cholelithiasis (Hepatotoxicity [3]) | HepSE_cirrhosis (Hepatotoxicity [4]) | HepSE_elevated liver function tests (Hepatotoxicity [5]) | HepSE_hepatic failure (Hepatotoxicity [6]) | HepSE_hepatic necrosis (Hepatotoxicity [7]) | HepSE_hepatitis (Hepatotoxicity [8]) | HepSE_hepatomegaly (Hepatotoxicity [9]) | HepSE_jaundice (Hepatotoxicity [10]) | HepSE_liver disease (Hepatotoxicity [11]) | HepSE_liver fatty (Hepatotoxicity [12]) | HepSE_liver function tests abnormal (Hepatotoxicity [13]) | HepSE_Combined Scores (Hepatotoxicity [14]) | also measured
1 | CN(Cc1cnc2nc(N)nc(N)c2n1)c1ccc(C(=O)N[C@@H](CCC(=O)O)C(=O)O)cc1 [METHOTREXATE] | 1 | 0 | 0 | 1 | 1 | 1 | 0 | 1 | 0 | 0 | 0 | 0 | 0 | 5 | –
2 | COc1c2occc2cc2ccc(=O)oc12 [METHOXSALEN] | 0 | 0 | 0 | 0 | 0 | 0 | 0 | 0 | 0 | 0 | 0 | 0 | 0 | 0 | –
3 | CN1C(=O)CC(C)(c2ccccc2)C1=O (configuration not stated) [METHSUXIMIDE] | 0 | 0 | 0 | 0 | 0 | 0 | 0 | 0 | 0 | 0 | 0 | 0 | 0 | 0 | –
4 | CN1C(CCl)Nc2cc(Cl)c(S(N)(=O)=O)cc2S1(=O)=O (configuration not stated) [METHYCLOTHIAZIDE] | 0 | 0 | 0 | 0 | 0 | 0 | 0 | 0 | 0 | 1 | 0 | 0 | 0 | 1 | –
5 | COC(=O)CCC(=O)CN [METHYL AMINOLEVULINATE] | 0 | 0 | 0 | 0 | 0 | 0 | 0 | 0 | 0 | 0 | 0 | 0 | 0 | 0 | –
6 | C[C@](N)(Cc1ccc(O)c(O)c1)C(=O)O [METHYLDOPA] | 0 | 0 | 0 | 0 | 0 | 0 | 0 | 1 | 0 | 1 | 0 | 0 | 1 | 3 | –
7 | CC[C@@H](CO)NC(=O)[C@@H]1C=C2c3cccc4[nH]cc(c34)C[C@H]2N(C)C1 [METHYLERGONOVINE] | 0 | 0 | 0 | 0 | 0 | 0 | 0 | 0 | 0 | 0 | 0 | 0 | 0 | 0 | –
8 | COC(=O)C(c1ccccc1)C1CCCCN1 (configuration not stated) [METHYLPHENIDATE] | 0 | 0 | 0 | 0 | 0 | 0 | 0 | 0 | 0 | 0 | 0 | 0 | 1 | 1 | –
9 | C[C@H]1C[C@@H]2[C@H]([C@@H](O)C[C@@]3(C)[C@H]2CC[C@]3(O)C(=O)CO)[C@@]2(C)C=CC(=O)C=C12 [METHYLPREDNISOLONE] | 0 | 0 | 0 | 0 | 0 | 0 | 0 | 0 | 0 | 0 | 0 | 0 | 0 | 0 | –
10 | C[C@]12CCC(=O)C=C1CC[C@@H]1[C@@H]2CC[C@@]2(C)[C@H]1CC[C@]2(C)O [METHYLTESTOSTERONE] | 0 | 0 | 0 | 0 | 0 | 0 | 0 | 0 | 0 | 1 | 0 | 0 | 0 | 1 | –
11 | CC[C@@H](CO)NC(=O)[C@@H]1C=C2c3cccc4c3c(cn4C)C[C@H]2N(C)C1 [METHYSERGIDE] | 0 | 0 | 0 | 0 | 0 | 0 | 0 | 0 | 0 | 0 | 0 | 0 | 0 | 0 | –
12 | CC(=O)Oc1c(C)cc(OCC(O)CNC(C)C)c(C)c1C (configuration not stated) [METIPRANOLOL] | 0 | 0 | 0 | 0 | 0 | 0 | 0 | 0 | 0 | 0 | 0 | 0 | 0 | 0 | –
13 | CCN(CC)CCNC(=O)c1cc(Cl)c(N)cc1OC [METOCLOPRAMIDE] | 0 | 0 | 0 | 0 | 0 | 0 | 0 | 0 | 0 | 1 | 0 | 0 | 0 | 1 | –
14 | Cc1ccccc1N1C(=O)c2cc(S(N)(=O)=O)c(Cl)cc2NC1C (configuration not stated) [METOLAZONE] | 0 | 0 | 0 | 0 | 0 | 0 | 0 | 1 | 0 | 1 | 0 | 0 | 0 | 2 | –
15 | COCCc1ccc(OCC(O)CNC(C)C)cc1 (configuration not stated) [METOPROLOL] | 0 | 0 | 0 | 0 | 0 | 0 | 0 | 1 | 0 | 1 | 0 | 0 | 0 | 2 | –
16 | Cc1ncc([N+](=O)[O-])n1CCO [METRONIDAZOLE] | 0 | 0 | 0 | 0 | 0 | 0 | 0 | 1 | 0 | 0 | 0 | 0 | 0 | 1 | –
17 | CC(C)(C(=O)c1cccnc1)c1cccnc1 [METYRAPONE] | – | – | – | – | – | – | – | – | – | – | – | – | – | – | HepSE_bilirubinemia (Hepatotoxicity [1]; Liver): 0; HepSE_cholecystitis (Hepatotoxicity [2]; Liver): 0; HepSE_cholelithiasis (Hepatotoxicity [3]; Liver): 0; HepSE_cirrhosis (Hepatotoxicity [4]; Liver): 0; HepSE_elevated liver function tests (Hepatotoxicity [5]; Liver): 0; HepSE_hepatic failure (Hepatotoxicity [6]; Liver): 0; HepSE_hepatic necrosis (Hepatotoxicity [7]; Liver): 0; HepSE_hepatitis (Hepatotoxicity [8]; Liver): 0; HepSE_hepatomegaly (Hepatotoxicity [9]; Liver): 0; HepSE_jaundice (Hepatotoxicity [10]; Liver): 0; HepSE_liver disease (Hepatotoxicity [11]; Liver): 0; HepSE_liver fatty (Hepatotoxicity [12]; Liver): 0; HepSE_liver function tests abnormal (Hepatotoxicity [13]; Liver): 0; HepSE_Combined Scores (Hepatotoxicity [14]; Liver): 0
18 | Cc1cccc(C)c1OCC(C)N (configuration not stated) [MEXILETINE] | – | – | – | – | – | – | – | – | – | – | – | – | – | – | HepSE_bilirubinemia (Hepatotoxicity [1]; Liver): 0; HepSE_cholecystitis (Hepatotoxicity [2]; Liver): 0; HepSE_cholelithiasis (Hepatotoxicity [3]; Liver): 0; HepSE_cirrhosis (Hepatotoxicity [4]; Liver): 0; HepSE_elevated liver function tests (Hepatotoxicity [5]; Liver): 0; HepSE_hepatic failure (Hepatotoxicity [6]; Liver): 0; HepSE_hepatic necrosis (Hepatotoxicity [7]; Liver): 1; HepSE_hepatitis (Hepatotoxicity [8]; Liver): 1; HepSE_hepatomegaly (Hepatotoxicity [9]; Liver): 0; HepSE_jaundice (Hepatotoxicity [10]; Liver): 0; HepSE_liver disease (Hepatotoxicity [11]; Liver): 0; HepSE_liver fatty (Hepatotoxicity [12]; Liver): 0; HepSE_liver function tests abnormal (Hepatotoxicity [13]; Liver): 1; HepSE_Combined Scores (Hepatotoxicity [14]; Liver): 3
